The results in this text go back to PMC6766947, “Multi-Armed 1,2,3-Selenadiazole and 1,2,3-Thiadiazole Benzene Derivatives as Novel Glyoxalase-I Inhibitors” (Molecules, 2019).

Broadly, the IC50 is the concentration at which inhibition is half-maximal.

The target of the assay is T1, human recombinant Glo-I (rhGlo-I) (Homo sapiens, UniProt Q04760).
T1 construct: purchased R&D Systems
T1 sequence (Q04760 2-184 limits assumed): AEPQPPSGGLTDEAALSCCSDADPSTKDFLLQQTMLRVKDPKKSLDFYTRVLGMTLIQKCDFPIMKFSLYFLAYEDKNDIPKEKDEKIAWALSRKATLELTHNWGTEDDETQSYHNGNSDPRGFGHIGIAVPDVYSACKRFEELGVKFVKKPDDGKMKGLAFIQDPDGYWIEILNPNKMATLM
The experiment in a line: In vitro Glo-I enzyme inhibition assay (UV-Vis, 240 nm). Type of assay: biochemical. Particulars: for IC50: rhGlo-I, triplicates, 240 nm, 200 s, 25 °C, pH 7.0–7.2. The protocol:
A total of twelve synthesized multi-arm benzene derivatives of 1,2,3-selenadiazole and 1,2,3-thiadiazole by M. Al-Smadi et al. were selected for the present study. The in vitro inhibitory activity of the compounds against the human Glo-I enzyme was measured using double-beam UV-Vis spectrophotometer (Biotech Engineering Management Co. Ltd., UK).
The Glo-I inhibitory activity was determined as reported previously. Briefly, human recombinant Glo-I (rhGlo-I), provided by R&D Systems® Corporation, was reconstituted by dissolving 0.5 mg/mL of it in sterile, deionized water before storing at –70 °C. The tested compounds were dissolved in DMSO to 10 mM stock solution. The assay buffer was prepared by mixing 0.1 M sodium phosphate dibasic solution and 0.1 M sodium phosphate monobasic solution with a pH of 7.0–7.2. The substrate mixture was prepared by mixing a suitable volume of 0.1 M sodium phosphate assay buffer with 100 mM methylglyoxal solution and 100 mM reduced glutathione. Finally, the tested compounds were mixed with the assay buffer, substrate solution mixture, and the Glo-I enzyme in a cuvette at an appropriate tested concentration. Each compound was tested in triplicates at λmax = 240 nm for 200 s at 25 °C.

As for `c1cc(-c2csnn2)ccc1OCc1c(COc2ccc(-c3csnn3)cc2)c(COc2ccc(-c3csnn3)cc2)c(COc2ccc(-c3csnn3)cc2)c(COc2ccc(-c3csnn3)cc2)c1COc1ccc(-c2csnn2)cc1` [Compound 12], the IC50 was determined as 2670 ± 310 nM.

For the compound `c1cc(-c2csnn2)ccc1OCc1cc(COc2ccc(-c3csnn3)cc2)c(COc2ccc(-c3csnn3)cc2)cc1COc1ccc(-c2csnn2)cc1` [Compound 10], the IC50 worked out at 2400 ± 130 nM. For the same compound, the “activity relative to selenium containing counterpart” value (fold difference in Glo-I inhibitory activity, sulfur vs selenium analogue) is “eight times more active”.

On to `c1c(COc2ccc(-c3csnn3)cc2)cc(COc2ccc(-c3csnn3)cc2)cc1COc1ccc(-c2csnn2)cc1` [Compound 8], for which the IC50 came out at 3000 ± 150 nM.

On to `c1cc(-c2c[se]nn2)ccc1OCc1c(COc2ccc(-c3c[se]nn3)cc2)c(COc2ccc(-c3c[se]nn3)cc2)c(COc2ccc(-c3c[se]nn3)cc2)c(COc2ccc(-c3c[se]nn3)cc2)c1COc1ccc(-c2c[se]nn2)cc1` [Compound 11], for which the concentration for half-maximal inhibition (IC50) was 8300 ± 560 nM.
